Laboratory results published in ChEMBL document CHEMBL1201862, “PubChem BioAssay data set” (2004).
Activity calls are given as the source filed them.

What was measured:
[1] = HEK-293T cell viability reduction – luminescence, B-cell screen hits, cytotoxicity control for BCR NF-kB inhibitor project, dose response (AID 489021); type: functional, cell-based;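 further: HEK-293T cells carrying an NF-kB luciferase reporter; cells exposed to compound for about 14 hours before viability readout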
[2] = tested on: Jurkat; experiment: SAR Analysis of small molecule inhibitors of T-cell specific antigen receptor-induced NF-kB activation in a Jurkat cell line using a luminescence assay - Set 2. [Related pubchem assays (depositor defined):AID435003, AID435012, AID465]; type: functional, cell-based; settings: Homo sapiens
[3] = tested on: HEK293; experiment: SAR Analysis of small molecule inhibitors of T-cell specific antigen receptor-induced NF-kB activation in a HEK-293T cell line using a luminescence assay - Set 2. [Related pubchem assays (depositor defined):AID435003, AID435012, AID489026]; type: functional, cell-based; settings: Homo sapiens
[4] = target: Protein Wnt-3a (Mus musculus, UniProt P27467); experiment: SAR analysis of small molecule antagonists of Gli-SUFU in a Wnt3a luminescent reporter assay.; type: functional
[5] = target: T1, Heat shock factor protein 1 (Mus musculus, UniProt P38532); experiment: decrease of HSF1-responsive luciferase luminescence – cell-based, NIH3T3, dose retest, confirmation (AID 2382); type: functional;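 further: NIH3T3 fibroblasts with HSF1-driven luciferase reporter stressed by proteasome inhibitor MG132; luminescence from HSF1-driven luciferase expression after 8 hours of MG132 stress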
T1 sequence (P38532 whole entry): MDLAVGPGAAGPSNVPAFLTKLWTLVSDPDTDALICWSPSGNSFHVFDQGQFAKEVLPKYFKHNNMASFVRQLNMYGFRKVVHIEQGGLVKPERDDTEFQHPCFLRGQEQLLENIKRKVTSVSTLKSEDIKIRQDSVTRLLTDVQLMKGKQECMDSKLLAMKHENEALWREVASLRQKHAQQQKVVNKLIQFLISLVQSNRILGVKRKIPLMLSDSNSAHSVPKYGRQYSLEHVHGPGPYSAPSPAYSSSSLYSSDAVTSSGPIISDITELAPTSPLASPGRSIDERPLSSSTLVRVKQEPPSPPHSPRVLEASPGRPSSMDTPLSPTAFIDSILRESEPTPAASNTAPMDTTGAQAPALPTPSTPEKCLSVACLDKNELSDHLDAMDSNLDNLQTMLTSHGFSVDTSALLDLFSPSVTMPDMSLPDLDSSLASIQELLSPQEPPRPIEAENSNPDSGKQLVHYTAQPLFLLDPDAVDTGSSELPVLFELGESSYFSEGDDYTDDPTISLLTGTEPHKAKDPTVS

[6] = tested on: HEK293; experiment: HEK293T cell viability loss, resazurin readout – resazurin fluorescence, cytotoxicity control for NF-kB activator project, SAR follow-up (AID 493251); type: functional, cell-based; settings: Homo sapiens
[7] = target: DNA topoisomerase (Yersinia pestis, UniProt A0A2S9PM60); experiment: Yersinia topoisomerase I cleavage product accumulation – biochemical, cherry-pick, dose response (AID 588525)
[8] = tested on: INS1; experiment: suppression of NO production in INS-1E cells – cell-based, Griess absorbance, dry powder, set 2, dose response (AID 488868); type: functional; settings: Rattus norvegicus
[9] = tested on: INS1; experiment: INS-1E mitochondrial potential loss inhibitors – cell-based, JC-1 fluorescence, dry powder, set 2, dose response (AID 488867); type: functional; settings: Rattus norvegicus
[10] = suppression of NO production in INS-1E cells – cell-based, Griess absorbance, dry powder, set 3, dose response (AID 488870); type: functional; settings: Rattus norvegicus
[11] = tested on: INS1; experiment: beta-cell survival under cytokine stress – INS-1E, ATP luminescence, dry powder, dose response (AID 488844); type: functional, cell-based; settings: Rattus norvegicus
[12] = tested on: INS1; experiment: suppression of cytokine-induced beta-cell apoptosis – INS-1E, caspase luminescence, dry powder, beta-cell apoptosis inhibitor project, dose response (AID 488848); type: functional, cell-based; settings: Rattus norvegicus
[13] = target: Sphingosine 1-phosphate receptor 2 (Homo sapiens, UniProt O95136); experiment: Late-stage fluorescence-based dose-response cell-based counterscreen assay to identify agonists of the Sphingosine 1-Phosphate Receptor 3 (S1P3): Sphingosine 1-Phosphate Receptor 2 (S1P2) agonist assay.; type: functional
[14] = target: T2, Sphingosine 1-phosphate receptor 4 (Homo sapiens, UniProt O95977); experiment: Late-stage fluorescence-based dose-response cell-based counterscreen assay to identify agonists of the Sphingosine 1-Phosphate Receptor 3 (S1P3): Sphingosine 1-Phosphate Receptor 4 (S1P4) agonist assay.; type: functional
T2 sequence (O95977 whole entry): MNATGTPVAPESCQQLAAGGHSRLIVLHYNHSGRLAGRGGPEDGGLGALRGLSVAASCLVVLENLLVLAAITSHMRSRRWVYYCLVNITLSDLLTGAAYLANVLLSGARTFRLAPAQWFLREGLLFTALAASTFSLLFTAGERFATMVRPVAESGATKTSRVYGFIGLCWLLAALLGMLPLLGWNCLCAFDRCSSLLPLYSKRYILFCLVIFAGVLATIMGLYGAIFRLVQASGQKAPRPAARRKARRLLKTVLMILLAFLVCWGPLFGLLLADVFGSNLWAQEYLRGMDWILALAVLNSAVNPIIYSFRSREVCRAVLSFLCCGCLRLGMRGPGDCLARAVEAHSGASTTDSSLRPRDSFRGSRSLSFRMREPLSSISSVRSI

Sequence of Sphingosine 1-phosphate receptor 2 (O95136 whole entry): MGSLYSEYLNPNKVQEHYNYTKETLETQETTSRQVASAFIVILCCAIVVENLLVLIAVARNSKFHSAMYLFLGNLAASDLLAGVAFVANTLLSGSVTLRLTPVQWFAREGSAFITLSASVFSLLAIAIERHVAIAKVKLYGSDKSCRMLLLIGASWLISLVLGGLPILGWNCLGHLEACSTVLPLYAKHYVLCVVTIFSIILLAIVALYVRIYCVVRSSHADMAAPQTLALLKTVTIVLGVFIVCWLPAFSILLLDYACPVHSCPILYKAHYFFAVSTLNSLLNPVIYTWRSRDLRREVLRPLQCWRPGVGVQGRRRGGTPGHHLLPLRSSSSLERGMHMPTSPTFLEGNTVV
Sequence of DNA topoisomerase (A0A2S9PM60 whole entry): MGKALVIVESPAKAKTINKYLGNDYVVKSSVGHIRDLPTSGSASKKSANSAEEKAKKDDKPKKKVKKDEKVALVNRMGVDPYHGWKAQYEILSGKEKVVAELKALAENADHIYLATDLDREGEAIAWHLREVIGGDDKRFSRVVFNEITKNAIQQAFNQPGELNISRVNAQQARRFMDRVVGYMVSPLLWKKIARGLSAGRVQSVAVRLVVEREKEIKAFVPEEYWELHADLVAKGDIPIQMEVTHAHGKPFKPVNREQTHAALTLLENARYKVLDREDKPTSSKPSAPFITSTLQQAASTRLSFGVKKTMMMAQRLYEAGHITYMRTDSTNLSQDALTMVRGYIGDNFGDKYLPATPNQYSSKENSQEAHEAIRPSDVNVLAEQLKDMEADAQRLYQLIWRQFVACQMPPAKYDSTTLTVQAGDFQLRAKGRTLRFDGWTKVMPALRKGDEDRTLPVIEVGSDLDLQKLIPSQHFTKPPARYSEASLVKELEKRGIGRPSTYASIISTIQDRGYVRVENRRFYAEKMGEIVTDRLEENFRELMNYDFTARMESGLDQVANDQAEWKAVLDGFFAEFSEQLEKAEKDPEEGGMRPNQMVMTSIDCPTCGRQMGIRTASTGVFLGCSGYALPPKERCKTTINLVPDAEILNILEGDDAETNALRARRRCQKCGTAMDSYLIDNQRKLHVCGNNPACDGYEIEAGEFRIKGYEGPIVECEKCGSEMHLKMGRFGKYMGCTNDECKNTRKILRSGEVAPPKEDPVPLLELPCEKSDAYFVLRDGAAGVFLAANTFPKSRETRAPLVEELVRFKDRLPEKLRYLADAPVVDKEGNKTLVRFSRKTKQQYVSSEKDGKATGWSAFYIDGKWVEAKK
Sequence of Protein Wnt-3a (P27467 whole entry): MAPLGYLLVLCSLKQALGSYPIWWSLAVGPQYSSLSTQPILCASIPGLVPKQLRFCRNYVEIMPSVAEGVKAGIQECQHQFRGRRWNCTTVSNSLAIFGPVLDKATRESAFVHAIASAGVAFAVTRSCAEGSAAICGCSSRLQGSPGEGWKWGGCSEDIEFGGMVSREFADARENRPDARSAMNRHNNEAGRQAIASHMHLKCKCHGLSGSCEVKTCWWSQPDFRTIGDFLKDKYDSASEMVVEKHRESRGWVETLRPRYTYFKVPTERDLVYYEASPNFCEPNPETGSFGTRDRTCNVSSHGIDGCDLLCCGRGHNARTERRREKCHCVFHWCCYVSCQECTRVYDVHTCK

With `CCOc1ccc(-c2nc(CSCC(=O)NC3CC3)c(C)o2)cc1` the IC50 [1] was > 80 µM (inactive), the IC50 [2] was > 79 µM (inactive) and the IC50 [3] was > 80 µM (inactive). For the same compound, the IC50 [4] was > 21.8 µM (inactive), the EC50 [5] was 0.241 µM (active) and the IC50 [6] was > 80 µM (inactive).
With `Cc1cc(C(=O)Cn2nc(C(=O)O)c3ccccc3c2=O)c(C)n1-c1ccc(OC(F)F)cc1` the AC50 [7] was 4.1 µM (active).
For `COc1ccc(S(=O)(=O)N(C)C[C@@H]2Oc3c(NC(=O)Nc4cccc5ccccc45)cccc3C(=O)N([C@@H](C)CO)C[C@H]2C)cc1`, the AC50 [8] was 46.8 µM (active), the AC50 [9] was 259 µM (active) and the AC50 [10] was 26.4 µM (active). For the same compound, the AC50 [11] was 4.88 µM (active) and the AC50 [12] was 81.2 µM (active).
With `O=C(c1ccc(C2CC2)o1)N(C1CCCCC1)C1CCCCC1` the EC50 [13] was > 50 µM (inactive) and the EC50 [14] was > 50 µM (inactive).
